From PubChem BioAssay (NCI)
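Dose response: 5 concentrations. Exposure: 48 h. Format: 96-well plates. Endpoint: linear interpolation; highest concentration if not reached. The concentration for full growth arrest is given as TGI.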

What was measured:
Experiment in all cases: NCI tumour cell line growth inhibition, 48 h
MOLT-4 leukemia = tested on: MOLT-4 leukemia
SF-268 CNS = tested on: SF-268 CNS
DU-145 prostate = tested on: DU-145 prostate
HOP-62 NSCLC = tested on: HOP-62 NSCLC
NCI-H23 lung = tested on: NCI-H23 lung
SNB-75 CNS = tested on: SNB-75 CNS
SK-OV-3 ovarian = tested on: SK-OV-3 ovarian
CAKI-1 renal = tested on: CAKI-1 renal
IGROV1 ovarian = tested on: IGROV1 ovarian
SR leukemia = tested on: SR leukemia
SK-MEL-28 melanoma = tested on: SK-MEL-28 melanoma
MDA-MB-435 = tested on: MDA-MB-435
A498 renal = tested on: A498 renal
OVCAR-3 ovarian = tested on: OVCAR-3 ovarian
LOX IMVI melanoma = tested on: LOX IMVI melanoma
HT29 colon = tested on: HT29 colon
OVCAR-8 ovarian = tested on: OVCAR-8 ovarian
786-0 renal = tested on: 786-0 renal
SNB-19 CNS = tested on: SNB-19 CNS
HL-60(TB) leukemia = tested on: HL-60(TB) leukemia
NCI-H460 lung = tested on: NCI-H460 lung
MCF7 breast = tested on: MCF7 breast
UO-31 renal = tested on: UO-31 renal
T-47D breast = tested on: T-47D breast
CCRF-CEM leukemia = tested on: CCRF-CEM leukemia
SW-620 colon = tested on: SW-620 colon
A549 NSCLC = tested on: A549 NSCLC
PC-3 prostate = tested on: PC-3 prostate
M14 melanoma = tested on: M14 melanoma
MDA-N = tested on: MDA-N
K-562 leukemia = tested on: K-562 leukemia
SK-MEL-5 melanoma = tested on: SK-MEL-5 melanoma
NCI/ADR-RES ovarian = tested on: NCI/ADR-RES ovarian
MDA-MB-231 breast = tested on: MDA-MB-231 breast
UACC-257 melanoma = tested on: UACC-257 melanoma
TK-10 renal = tested on: TK-10 renal
KM12 colon = tested on: KM12 colon
RXF 393 renal = tested on: RXF 393 renal
OVCAR-5 ovarian = tested on: OVCAR-5 ovarian
HCT-116 colon = tested on: HCT-116 colon
SF-295 CNS = tested on: SF-295 CNS
SK-MEL-2 melanoma = tested on: SK-MEL-2 melanoma
BT-549 breast = tested on: BT-549 breast
COLO 205 colon = tested on: COLO 205 colon
MALME-3M melanoma = tested on: MALME-3M melanoma
HS 578T breast = tested on: HS 578T breast
SN12C renal = tested on: SN12C renal
UACC-62 melanoma = tested on: UACC-62 melanoma
EKVX NSCLC = tested on: EKVX NSCLC
ACHN renal = tested on: ACHN renal
U251 CNS = tested on: U251 CNS
SF-539 CNS = tested on: SF-539 CNS
RPMI-8226 leukemia = tested on: RPMI-8226 leukemia
HCC-2998 colon = tested on: HCC-2998 colon
HOP-92 NSCLC = tested on: HOP-92 NSCLC
OVCAR-4 ovarian = tested on: OVCAR-4 ovarian
HCT-15 colon = tested on: HCT-15 colon

Cc1ccc(O)c(-c2cc(-c3cccc(Br)c3)on2)c1
TGI (MOLT-4 leukemia): > 100 µM | TGI (SF-268 CNS): 89.9 µM | TGI (DU-145 prostate): > 100 µM | TGI (HOP-62 NSCLC): > 100 µM | TGI (NCI-H23 lung): > 100 µM | TGI (SNB-75 CNS): 86.2 µM | TGI (SK-OV-3 ovarian): 68.6 µM | TGI (CAKI-1 renal): > 100 µM | TGI (IGROV1 ovarian): > 100 µM | TGI (SR leukemia): 99.4 µM | TGI (SK-MEL-28 melanoma): 52.8 µM | TGI (MDA-MB-435): 50 µM | TGI (A498 renal): > 100 µM | TGI (OVCAR-3 ovarian): 51.7 µM | TGI (LOX IMVI melanoma): 31.5 µM | TGI (HT29 colon): 67.3 µM | TGI (OVCAR-8 ovarian): 67.3 µM | TGI (786-0 renal): > 100 µM | TGI (SNB-19 CNS): > 100 µM | TGI (HL-60(TB) leukemia): 81.9 µM | TGI (NCI-H460 lung): > 100 µM | TGI (MCF7 breast): 32.5 µM | TGI (UO-31 renal): > 100 µM | TGI (T-47D breast): > 100 µM | TGI (CCRF-CEM leukemia): > 100 µM | TGI (SW-620 colon): 46.7 µM | TGI (A549 NSCLC): > 100 µM | TGI (PC-3 prostate): > 100 µM | TGI (M14 melanoma): > 100 µM | TGI (MDA-N): 65.2 µM | TGI (K-562 leukemia): > 100 µM | TGI (SK-MEL-5 melanoma): 41.6 µM | TGI (NCI/ADR-RES ovarian): > 100 µM | TGI (MDA-MB-231 breast): > 100 µM | TGI (UACC-257 melanoma): > 100 µM | TGI (TK-10 renal): 43.2 µM | TGI (KM12 colon): 47.2 µM | TGI (RXF 393 renal): 35.7 µM | TGI (OVCAR-5 ovarian): > 100 µM | TGI (HCT-116 colon): 57.7 µM | TGI (SF-295 CNS): > 100 µM | TGI (SK-MEL-2 melanoma): 56 µM | TGI (BT-549 breast): 77.5 µM | TGI (COLO 205 colon): 37.1 µM | TGI (MALME-3M melanoma): 68.9 µM | TGI (HS 578T breast): > 100 µM | TGI (SN12C renal): 55.1 µM | TGI (UACC-62 melanoma): 78.1 µM | TGI (EKVX NSCLC): > 100 µM | TGI (ACHN renal): > 100 µM | TGI (U251 CNS): 33.7 µM | TGI (SF-539 CNS): > 100 µM | TGI (RPMI-8226 leukemia): 85.2 µM | TGI (HCC-2998 colon): 53.2 µM | TGI (HOP-92 NSCLC): > 100 µM | TGI (OVCAR-4 ovarian): 34.6 µM | TGI (HCT-15 colon): > 100 µM
